From patent publication US20250281621A1, “GPC3 APTAMERS AND VARIANTS AND USE THEREOF” (Guardian Therapeutics, LLC, priority 2020, published 2025)

Tested on: NCI-H446 xenograft
Settings: 40 mg/kg, I.P. QD for 28 days

CCc1c2c(nc3ccc(OC(=O)N4CCC(N5CCCCC5)CC4)cc13)-c1cc3c(c(=O)n1C2)COC(=O)[C@]3(O)CC [Irinotecan, irinotecan]
% of body weight loss (Day 29): −5.29%
